Assay results as given in US20260070929A1, “METHODS AND COMPOSITIONS FOR MODULATING KRAS(G12D)” (Ranok Therapeutics (Hangzhou) Co. LTD., priority 2022, published 2026).
Where two headings read alike, the source gives them in different places.

What was measured:
[1] = test system: AGS gastric carcinoma cells [heterozygous G12D]; assay: Cancer cell line proliferation (CellTiter-Glo), AGS; format: cell-based; conditions: 72 hr treatment, read-out: AGS CTG (EC50)
Method in brief: (§1)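 First, plate 4,000 cells per well and incubate 72 hr (37° C., 5% CO2). Next, add compound from a 3-fold dilution series spanning 20 μM to 1.02 nM, keeping DMSO at 0.5%. Then incubate another 72 hr, add CellTiter-Glo, and derive EC50.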

[2] = test system: ASPC1 pancreatic adenocarcinoma cells [homozygous G12D]; assay: Cancer cell line proliferation (CellTiter-Glo), ASPC1; format: cell-based; conditions: 72 hr treatment, read-out: ASPC-1 CTG (EC50)
Method in brief: as §1

KRAS(G12D)/SOS1 = biological target: T1, KRAS(G12D)/SOS1 (Homo sapiens, UniProt P01116, G12D); assay: KRAS(G12D)/SOS1 homogeneous time-resolved fluorescence (HTRF) assay; format: binding; conditions: absence of GTP; 4° C., 3 hr
T1 construct: purchased Cisbio 63ADK000CB17PEH
Method in brief: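 Disruption of the KRAS(G12D)/SOS1 pairing, in the absence of GTP, was read by time-resolved FRET after a 3 hr sealed incubation at 4 °C. Test compounds spanned 20 µM down to 1.02 nM in 3-fold steps. IC50 values correspond to half-maximal inhibition.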

[3] = test system: A-427 lung carcinoma cells [heterozygous G12D]; assay: Cancer cell line proliferation (CellTiter-Glo), A-427; format: cell-based; conditions: A-427 cells, 72 hr treatment, read-out: A427 CTG (EC50)
Method in brief: as §1

[4] = test system: SW1990 pancreatic adenocarcinoma cells [homozygous G12D]; assay: Cancer cell line proliferation (CellTiter-Glo), SW1990; format: cell-based; conditions: Homo sapiens, 72 hr treatment, read-out: SW1990 CTG (EC50)
Method in brief: as §1

T1 sequence (P01116 1-188 isoform P01116-2 G12D): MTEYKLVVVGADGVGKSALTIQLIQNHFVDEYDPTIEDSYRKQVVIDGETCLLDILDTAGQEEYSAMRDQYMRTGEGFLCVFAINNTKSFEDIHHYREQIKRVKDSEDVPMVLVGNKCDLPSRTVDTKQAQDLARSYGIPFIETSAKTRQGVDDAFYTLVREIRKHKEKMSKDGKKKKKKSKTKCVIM

SMILES	EC50 ([1]; Homo sapiens)	EC50 ([2]; Homo sapiens, ASPC1, 72 h)	IC50 (KRAS(G12D)/SOS1)	EC50 ([3]; Homo sapiens)	EC50 [4]	EC50 [1]	EC50 [2]	EC50 [3]
C#Cc1cccc2cc(O)cc(-c3ncc4c(N5CC6CCC(C5)N6)nc(OCC5(CN6CCN(C(=O)C7CCN(Cc8ccc9c(c8)CN(C(=O)c8cc(C(C)C)c(O)cc8O)C9)CC7)CC6)CC5)nc4c3F)c12 [Compound 157]	< 100 nM	100 to 1000 nM	< 100 nM	100 to 1000 nM	100 to 1000 nM	–	–	–
C#Cc1c(F)ccc2cc(O)cc(-c3nc(OC)c4c(N5CC6CCC(C5)N6)nc(OCC5(CN6CCN(CC7CCN(Cc8ccc(-n9c(C(=O)NC(C)C(F)(F)F)nnc9-c9cc(C(C)C)c(O)cc9O)cc8)CC7)CC6)CC5)nc4c3F)c12 (centres unmarked) [Compound 158]	< 100 nM	< 100 nM	< 100 nM	< 100 nM	< 100 nM	–	–	–
CC(C)c1cc(C(=O)N2Cc3ccc(CN4CCC(CN5CCN(CC6(COc7nc(N8CC9CCC(C8)N9)c8cnc(-c9cc(O)cc%10ccccc9%10)c(F)c8n7)CC6)CC5)CC4)cc3C2)c(O)cc1O [Compound 159]	100 to 1000 nM	100 to 1000 nM	< 100 nM	100 to 1000 nM	100 to 1000 nM	–	–	–
C#Cc1c(F)ccc2cc(O)cc(-c3ncc4c(N5CC6CCC(C5)N6)nc(CCC5(CN6CCN(C7CCN(Cc8ccc9c(c8)CN(C(=O)c8cc(C(C)C)c(O)cc8O)C9)CC7)CC6)CC5)nc4c3F)c12 [Compound 161]	< 100 nM	100 to 1000 nM	< 100 nM	100 to 1000 nM	< 100 nM	–	–	–
C#Cc1c(F)ccc2cc(O)cc(-c3ncc4c(N5CC6CCC(C5)N6)nc(OCC5(CN6CCC(C7CCN(Cc8ccc(-n9c(C(=O)NC(C)C(F)(F)F)nnc9-c9cc(C(C)C)c(O)cc9O)cc8)CC7)CC6)CC5)nc4c3F)c12 (centres unmarked) [Compound 162]	< 100 nM	< 100 nM	< 100 nM	< 100 nM	< 100 nM	–	–	–
C#Cc1c(F)ccc2cc(O)cc(-c3ncc4c(N5CC6CCC(C5)N6)nc(OCC5(CN6CCC(C7CCN(Cc8ccc9c(c8)CN(C(=O)c8cc(C(C)C)c(O)cc8O)C9)CC7)CC6)CC5)nc4c3F)c12 [Compound 163]	< 100 nM	100 to 1000 nM	< 100 nM	100 to 1000 nM	< 100 nM	–	–	–
Cc1cccc2cccc(-c3ncc4c(N5CC6CCC(C5)N6)nc(OC[C@@H]5C[C@H](N6CCN(Cc7ccc8c(c7)CN(C(=O)c7cc(C(C)C)c(O)cc7O)C8)CC6)CN5C)nc4c3F)c12 [Example 1]	–	–	100 to 1000 nM	–	100 to 1000 nM	100 to 1000 nM	100 to 1000 nM	100 to 1000 nM
